Data reported in patent EP3135113A1, “USE OF HERBICIDAL COMPOSITIONS FOR CONTROLLING UNWANTED VEGETATION” (BASF SE, priority 2015, dated 2017).

Test system: Amaranthus palmeri
Assay: field test, post-emergence spray, visual injury rating of Palmer amaranth (scale 0 to 100)
Type: in vivo
Details: 3 days after treatment, 0.25% by volume non-ionic surfactant (Induce), 185 liter/ha
Description: The following examples summarized in table 1 serve to illustrate the invention: • Dicamba was applied as Engenia™ herbicide [BAPMA salt - (bis(3-aminopropyl)methylamine))], while 2,4-DB was applied as the commercially available Butyrac® 200 (dimethylamine salt). Herbicides were applied at an appropriate weight of each product dissolved in 1 liter of water. All herbicide treatments were applied with 0.25% by volume of a non-ionic surfactant (Induce®; an adjuvant composition consisting of alkyl aryl polyoxyalkane ethers, alkanolamides, dimethyl siloxane and free fatty acids). The spray solution was applied by a CO2 powered backpack sprayer delivering the spray solution at a rate of 185 liter/ha. The spray solution was applied to a field naturally populated with Palmer amaranth (Amaranthus palmeri) with an average height of 4-6 inches in height, however, plants both larger and smaller plants were in the field at the time of application as well. Palmer amaranth was assessed for visual injury 3 days after treatment and injury was rated on a scale from 0 to 100, whereby 0 equals no herbicidal response and 100 equals complete control of the Palmer amaranth.

4-(2,4-dichlorophenoxy)butanoic acid [2,4-DB]
herbicidal activity against Amaranthus palmeri (% control) found (Exp. No. 2, 2,4-DB 17.5 g/ha a.i.): 0%
herbicidal activity against Amaranthus palmeri (% control) found (Exp. No. 3, 2,4-DB 35 g/ha a.i.): 5%
herbicidal activity against Amaranthus palmeri (% control) found (Exp. No. 4, 2,4-DB 52.5 g/ha a.i.): 15%

COc1c(Cl)ccc(Cl)c1C(=O)O [dicamba, 3,6-dichloro-2-methoxybenzoic acid]
herbicidal activity against Amaranthus palmeri (% control) found (Exp. No. 1, dicamba 420 g/ha a.i.): 60%
